Where “and” joins values, the source holds several entries; their conditions need not be identical. Equal values may be shown once.
Key:
[1] = system: uterus wet weight, immature Sprague-Dawley rats; experiment: Rat Uterotrophic/Antiuterotrophic Bioassay; type: in vivo; settings: day 4; for uterine wet weight, 10 μG: 10 uG compound daily ip; for uterine wet weight, 10 μG / uterine wet weight, 100 μG + 1 μG 17β-estradiol / uterine wet weight, 100 μG: immature female rats; for uterine wet weight, 100 μG + 1 μG 17β-estradiol: 100 uG compound + 1 uG 17β-estradiol daily ip; for uterine wet weight, 100 μG: 100 uG compound daily ip
Description: Rat Uterotrophic/Antiuterotrophic Bioassay The estrogenic and antiestrogenic properties of the compounds were determined in an immature rat uterotrophic assay (4 day) that (as described previously by L. J. Black and R. L. Goode, Life Sciences, 26, 1453 (1980)). Immature Sprague-Dawley rats (female, 18 days old) were tested in groups of six. […] A small section of one horn was submitted for histology and the remainder used to isolate total RNA in order to evaluate complement component 3 gene expression.

estrogen receptor = target: T1, estrogen receptor (Homo sapiens, UniProt P03372); experiment: In Vitro Estrogen Receptor Binding Assay ([3H]-17β-estradiol competition); settings: RBA: 17β-estradiol=100; cytosol of CHO cells overexpressing the estrogen receptor
T1 construct: expressed in transfected cells; host or cells: CHO cells, ribosome-free cytosol
T1 sequence (P03372 1-595): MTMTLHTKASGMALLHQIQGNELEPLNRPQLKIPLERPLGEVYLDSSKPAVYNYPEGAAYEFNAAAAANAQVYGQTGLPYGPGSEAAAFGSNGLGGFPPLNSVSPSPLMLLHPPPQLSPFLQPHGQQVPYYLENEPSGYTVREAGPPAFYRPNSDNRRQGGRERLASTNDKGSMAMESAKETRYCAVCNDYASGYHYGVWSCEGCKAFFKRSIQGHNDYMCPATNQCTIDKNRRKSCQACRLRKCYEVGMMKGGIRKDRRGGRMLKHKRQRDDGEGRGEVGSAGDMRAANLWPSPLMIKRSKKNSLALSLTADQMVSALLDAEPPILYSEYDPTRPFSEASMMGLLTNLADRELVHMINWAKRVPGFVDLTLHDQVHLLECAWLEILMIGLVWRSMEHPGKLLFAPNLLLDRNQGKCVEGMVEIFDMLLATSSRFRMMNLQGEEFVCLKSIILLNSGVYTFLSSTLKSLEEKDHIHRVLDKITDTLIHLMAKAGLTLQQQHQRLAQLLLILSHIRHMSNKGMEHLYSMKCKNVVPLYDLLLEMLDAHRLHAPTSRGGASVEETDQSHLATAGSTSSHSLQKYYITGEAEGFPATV

Ishikawa cells = experiment: Ishikawa Cell Alkaline Phosphatase Assay; type: cell-based, human; settings: compound alone; percent of response related to 1 nM 17β-estradiol; 48 h
Description: Ishikawa Cell Alkaline Phosphatase Assay Cell Maintenance and Treatment: […] Cells were treated for 48 h prior to assay. […] Sample population for at each dose was n=8. Alkaline Phosphatase Assay: […] Plates are placed at -80° C. for a minimum of 15 minutes. Plates are thawed at 37° C. followed by the addition of 150 μL of 0.1 M Tris-HCl, pH 9.8, containing 4 mM para-nitrophenylphosphate (pNPP) to each well (final concentration, 3 mM pNPP). Absorbance and slope calculations were made using the […] Application program (Bio-Tek Instruments, Inc., Winooski, VT.). […] Various compounds were assayed for estrogenic activity by the alkaline phosphatase method and corresponding ED50 values (95% C.I.) were calculated. The four listed in the following were used as as reference standards: A description of these methods is described by Holinka, […]., Kuramoto, H. and Gurpide, E. (1986) Effects of steroid hormones and antisteroids on alkaline phosphatase activity in human endometrial cancer cells (Ishikawa Line). Cancer Research, 46:2771-2774, and by […]. and […] simple and sensitive microtiter plate estrogen bioassay based on stimulation alkaline phosphatase in Ishikawa cells; […] Endocrinology, 6:2757-2762.

SMILES	melting point	uterine wet weight, 1 μG 17β-estradiol ([1]; 1 uG 17β-estradiol daily ip, positive control of each experiment)	uterine wet weight, 10 μG [1]	uterine wet weight, 100 μG + 1 μG 17β-estradiol [1]	uterine wet weight, 100 μG [1]	Estrogen Receptor Affinity (RBA) (estrogen receptor)	% Activation (Ishikawa cells)
Cc1c(-c2ccc(O)cc2)n(Cc2ccc(C#CCN3CCCC3)cc2)c2ccc(O)cc12	174 to 176 °C						
C[C@]12CC[C@@H]3c4ccc(O)cc4CC[C@H]3[C@@H]1CC[C@@H]2O [17β-estradiol]		1 μG 17β-estradiol = 98.2 mg and 1 μG 17β-estradiol = 90.2 mg and 1 μg 17β-estradiol = 82.8 mg					
Cc1c(-c2ccc(O)cc2)n(Cc2ccc(C#CCN3CCCCC3)cc2)c2ccc(O)cc12 [Example 5, 2-(4-Hydroxy-phenyl)-3-methyl-1-[4-(3-piperidin-1-yl-prop-1-vinyl)-benzyl]-1H-indol-5-ol]			55.6 mg	66.8 mg	71.3 mg	23	
Cc1c(-c2ccc(O)cc2)n(Cc2ccc(C#CCN(C)C)cc2)c2ccc(O)cc12 [Example 4, 2-(4-Hydroxy-phenyl)-3-methyl-1-[4-(3-N,N-dimethyl-1-yl-prop-1-ynyl)-benzyl]-1H-indol-5-ol]			56.0 mg	77.6 mg	84.0 mg	53	
CC/C(=C(\c1ccccc1)c1ccc(OCCN(C)C)cc1)c1ccccc1 [Tamoxifen]			69.6 mg		71.4 mg		0%
O=C(c1ccc(OCCN2CCCCC2)cc1)c1c(-c2ccc(O)cc2)sc2cc(O)ccc12 [Raloxifene]			47.5 mg		43.2 mg		5%
